The target of this test is p38 MAP-kinase (Homo sapiens, UniProt Q16539). Nature of the test: Enzymatic assay: inhibition of p38 MAP-kinase (phosphorylation of GST-tagged ATF2, chemoluminescence bead readout). The conditions noted are these: inhibitor 1 μM; activated p38 MAP-kinase 1 nM; 4 h preincubation; ATP 100 μM; ATF2 10 nM; read-out: % inhibitory effect at 1 μM. It is filed as biochemical. An outline of the steps: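 Activated human p38 MAP-kinase (1 nM) preincubated 4 h at ambient temperature with compound at 1 μM in HEPES pH 7, MgCl2, DTT, Tween20. Then reacted 1 h with GST-ATF2 (10 nM) and ATP (100 μM). Phospho-ATF2 read by bead chemoluminescence at 520-620 nm, given as % inhibition at 1 μM versus kinase-free background.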
Chain of p38 MAP-kinase (Q16539 whole entry): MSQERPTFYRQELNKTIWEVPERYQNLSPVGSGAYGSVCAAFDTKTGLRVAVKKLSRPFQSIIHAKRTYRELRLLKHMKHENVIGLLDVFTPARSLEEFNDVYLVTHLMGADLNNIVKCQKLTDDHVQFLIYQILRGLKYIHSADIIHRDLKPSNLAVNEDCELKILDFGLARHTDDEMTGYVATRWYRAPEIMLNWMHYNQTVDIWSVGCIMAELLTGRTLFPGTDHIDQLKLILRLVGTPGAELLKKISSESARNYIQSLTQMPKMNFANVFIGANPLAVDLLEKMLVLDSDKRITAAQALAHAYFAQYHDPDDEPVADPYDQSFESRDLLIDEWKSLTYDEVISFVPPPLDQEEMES

For the compound `COc1c(NC(=O)c2ccc(Cl)c(Oc3cc(CN4CCCNCC4)ncn3)c2)cc(C(C)(C)C)cc1NS(C)(=O)=O` [5(36), N-(5-tert-butyl-3-methanesulphonylamino-2-methoxy-phenyl)-4-chloro-3-(6-[1,4]diazepan-1-ylmethyl-pyrimidin-4-yloxy)-benzamide], the inhibition at 1 µM amounted to 99.3%.
Take `COc1c(NC(=O)c2ccc(Cl)c(Oc3ccnc(CN4CCCNCC4)c3)c2)cc(C(C)(C)C)cc1NS(C)(=O)=O` [5(37), N-(5-tert-butyl-3-methanesulphonylamino-2-methoxy-phenyl)-4-chloro-3-(2-[1,4]diazepan-1-ylmethyl-pyridin-4-yloxy)-benzamide]: the inhibition at 1 µM worked out at 99.3%.
In the case of `COc1c(NC(=O)c2ccc(C)c(Oc3ccnc(CC4CCNCC4)n3)c2)cc(C(C)(C)C)cc1S(C)(=O)=O` [5(38), N-(5-tert-butyl-3-methanesulphonyl-2-methoxy-phenyl)-4-methyl-3-(2-piperidin-4-ylmethyl-pyrimidin-4-yloxy)-benzamide], the inhibition at 1 µM turned out to be 98.8%.
The result for `COc1c(NC(=O)c2ccc(C)c(Oc3ccnc(CN4CCCNCC4)c3)c2)cc(C(C)(C)C)cc1S(C)(=O)=O` [5(39), N-(5-tert-butyl-3-methanesulphonyl-2-methoxy-phenyl)-3-(2-[1,4]diazepan-1-ylmethyl-pyridin-4-yloxy)-4-methyl-benzamide] reads 99.4%.
The result for `COc1c(CSC)cc(C(C)(C)C)cc1NC(=O)c1ccc(C)c(Oc2ccnc(CC3CCNCC3)c2)c1` [5(40), N-(5-tert-butyl-2-methoxy-3-methylsulphanylmethyl-phenyl)-4-methyl-3-(2-piperidin-4-ylmethyl-pyridin-4-yloxy)-benzamide] reads 99.5%; that for `COc1c(CS(C)(=O)=O)cc(C(C)(C)C)cc1NC(=O)c1ccc(C)c(Oc2ccnc(CC3CCNCC3)c2)c1` [5(41), N-(5-tert-butyl-3-methanesulphonylmethyl-2-methoxy-phenyl)-4-methyl-3-(2-piperidin-4-ylmethyl-pyridin-4-yloxy)-benzamide], 99.6%; that for `COc1c(C[S+](C)[O-])cc(C(C)(C)C)cc1NC(=O)c1ccc(C)c(Oc2ccnc(CC3CCNCC3)c2)c1` (stereo not shown) [5(42), N-(5-tert-butyl-2-methoxy-3-methylsulphinylmethyl-phenyl)-4-methyl-3-(2-piperidin-4-ylmethyl-pyridin-4-yloxy)-benzamide], 99.5%.
The result for `COc1c(NC(=O)c2ccc(C)c(Oc3ccnc(CC4CCNCC4)c3)c2)cc(C(C)(C)C)cc1NC(=O)C1CC1` [5(43), N-[5-tert-butyl-3-(cyclopropanecarbonyl-amino)-2-methoxy-phenyl]-4-methyl-3-(2-piperidin-4-ylmethyl-pyridin-4-yloxy)-benzamide] reads 98.6%; that for `Cc1ccc(C(=O)Nc2cc(C(C)(C)C)cc(NS(C)(=O)=O)c2OC(C)C)cc1Oc1ccnc(CC2CCNCC2)c1` [5(44), N-(5-tert-butyl-2-isopropoxy-3-methanesulphonylamino-phenyl)-4-methyl-3-(2-piperidin-4-ylmethyl-pyridin-4-yloxy)-benzamide], 93.2%.
Consider `CCOc1c(NC(=O)c2ccc(C)c(Oc3ccnc(CC4CCNCC4)c3)c2)cc(C(C)(C)C)cc1NS(C)(=O)=O` [5(45), N-(5-tert-butyl-2-ethoxy-3-methanesulphonylamino-phenyl)-4-methyl-3-(2-piperidin-4-ylmethyl-pyridin-4-yloxy)-benzamide], for which the inhibition at 1 µM is 99.6%.
The result for `COc1c(NC(=O)c2ccc(C)c(Oc3ccnc(CC4CCNCC4)c3)c2)cc(C(C)(C)C)cc1NS(=O)(=O)CC(C)C` [5(46), N-[5-tert-butyl-2-methoxy-3-(2-methyl-propane-1-sulphonylamino)-phenyl]-4-methyl-3-(2-piperidin-4-ylmethyl-pyridin-4-yloxy)-benzamide] reads 99.6%; that for `COc1c(NC(=O)c2ccc(C)c(Oc3ccnc(CC4CCNCC4)c3)c2)cc(C(C)(C)C)cc1NC(=O)C(C)C` [5(47), N-(5-tert-butyl-3-isobutyrylamino-2-methoxy-phenyl)-4-methyl-3-(2-piperidin-4-ylmethyl-pyridin-4-yloxy)-benzamide], 97.3%.
The value for `COc1c(NC(=O)c2ccc(C)c(Oc3ccnc(CC4CCNCC4)c3)c2)cc(C(C)(C)C)cc1[S+](C)[O-]` (stereo not shown) [5(48), N-(5-tert-butyl-3-methanesulphinyl-2-methoxy-phenyl)-4-methyl-3-(2-piperidin-4-ylmethyl-pyridin-4-yloxy)-benzamide] was 99.4%; that for `COc1c(NC(=O)c2ccc(C)c(Oc3ccnc(CC4CCNCC4)c3)c2)cc(C(F)(F)F)cc1NS(C)(=O)=O` [5(49), N-(3-methanesulphonylamino-2-methoxy-5-trifluoromethyl-phenyl)-4-methyl-3-(2-piperidin-4-ylmethyl-pyridin-4-yloxy)-benzamide] was 99.2%; that for `COc1c(NC(=O)c2ccc(C)c(Oc3ccnc(CC4CCNCC4)c3)c2)cc(C(C)(C)C)cc1NS(=O)(=O)C(C)C` [5(50), N-[5-tert-butyl-2-methoxy-3-(propane-2-sulphonylamino)-phenyl]-4-methyl-3-(2-piperidin-4-ylmethyl-pyridin-4-yloxy)-benzamide] was 99.6%.
As for `COc1c(NC(=O)c2ccc(C)c(Oc3ccnc(CC4CCCNCC4)c3)c2)cc(C(C)(C)C)cc1NS(C)(=O)=O` (stereo not shown) [5(52), 3-(2-azepan-4-ylmethyl-pyridin-4-yloxy)-N-(5-tert-butyl-3-methanesulphonylamino-2-methoxy-phenyl)-4-methyl-benzamide], the inhibition at 1 µM came to 99.5%.
The value for `COc1c(NC(=O)c2ccc(C)c(Oc3ccnc(CC4CCCNCC4)n3)c2)cc(C(C)(C)C)cc1NS(C)(=O)=O` (stereo not shown) [5(53), 3-(2-azepan-4-ylmethyl-pyrimidin-4-yloxy)-N-(5-tert-butyl-3-methanesulphonylamino-2-methoxy-phenyl)-4-methyl-benzamide] was 97%; that for `COc1c(NC(=O)c2ccc(C)c(Oc3cc(CC4CCCNCC4)ncn3)c2)cc(C(C)(C)C)cc1NS(C)(=O)=O` (stereo not shown) [5(54), 3-(6-azepan-4-ylmethyl-pyrimidin-4-yloxy)-N-(5-tert-butyl-3-methanesulphonylamino-2-methoxy-phenyl)-4-methyl-benzamide] was 99.7%.
The result for `COc1c(NC(=O)c2ccc(C)c(Oc3ccnc(CC4CCNCC4)c3)c2)cc(C(F)(F)C(F)(F)F)cc1NS(C)(=O)=O` [5(55), N-(3-methanesulphonylamino-2-methoxy-5-pentafluoroethyl-phenyl)-4-methyl-3-(2-piperidin-4-ylmethyl-pyridin-4-yloxy)-benzamide] reads 99.6%.
The value for `COc1c(NC(=O)c2ccc(C)c(Oc3cc(C(=O)N4CCN(C)CC4)ncn3)c2)cc(C(C)(C)C)cc1NS(C)(=O)=O` [7(2), N-(5-tert-butyl-3-methanesulphonylamino-2-methoxy-phenyl)-4-methyl-3-[6-(4-methyl-piperazine-1-carbonyl)-pyrimidin-4-yloxy]-benzamide] was 96.3%; that for `COc1c(NC(=O)c2cc(F)c(C)c(Oc3ccnc(CN4CCN(C)CC4)n3)c2)cc(C(C)(C)C)cc1NS(C)(=O)=O` [7(3), N-(5-tert-butyl-3-methanesulphonylamino-2-methoxy-phenyl)-3-fluoro-4-methyl-5-[2-(4-methyl-piperazin-1-ylmethyl)-pyrimidin-4-yloxy]-benzamide] was 98.8%; that for `COc1c(NC(=O)c2cc(Cl)c(C)c(Oc3ccnc(CN4CCN(C)CC4)n3)c2)cc(C(C)(C)C)cc1NS(C)(=O)=O` [7(5), N-(5-tert-butyl-3-methanesulphonylamino-2-methoxy-phenyl)-3-chloro-4-methyl-5-[2-(4-methyl-piperazin-1-ylmethyl)-pyrimidin-4-yloxy]-benzamide] was 98.5%.
On to `CNCc1cc(Oc2cc(C(=O)Nc3cc(C(C)(C)C)cc(NS(C)(=O)=O)c3OC)ccc2C)ncn1` [8(1), N-(5-tert-butyl-3-methanesulphonylamino-2-methoxy-phenyl)-4-methyl-3-(6-methylaminomethyl-pyrimidin-4-yloxy)-benzamide], for which the inhibition at 1 µM was determined as 55.9%.
The value for `COc1c(NC(=O)c2ccc(C)c(Oc3cc(CN4CCN(C)CC4)ncn3)c2)cc(C(C)(C)C)cc1NS(C)(=O)=O` [8(2), N-(5-tert-butyl-3-methanesulphonylamino-2-methoxy-phenyl)-4-methyl-3-[6-(4-methyl-piperazin-1-ylmethyl)-pyrimidin-4-yloxy]-benzamide] was 98.7%; that for `COc1c(NC(=O)c2ccc(C)c(Oc3ccnc(CN4CCOCC4)n3)c2)cc(C(C)(C)C)cc1NS(C)(=O)=O` [8(3), N-(5-tert-butyl-3-methanesulphonylamino-2-methoxy-phenyl)-4-methyl-3-(2-morpholin-4-ylmethyl-pyrimidin-4-yloxy)-benzamide] was 95.2%; that for `CNCc1nccc(Oc2cc(C(=O)Nc3cc(C(C)(C)C)cc(NS(C)(=O)=O)c3OC)ccc2C)n1` [8(4), N-(5-tert-butyl-3-methanesulphonylamino-2-methoxy-phenyl)-4-methyl-3-(2-methylaminomethyl-pyrimidin-4-yloxy)-benzamide] was 66%.
For the compound `COc1c(NC(=O)c2ccc(C)c(Oc3ccnc(CN4CCNC(=O)C4)n3)c2)cc(C(C)(C)C)cc1NS(C)(=O)=O` [8(5), N-(5-tert-butyl-3-methanesulphonylamino-2-methoxy-phenyl)-4-methyl-3-[2-(3-oxo-piperazin-1-ylmethyl)-pyrimidin-4-yloxy]-benzamide], the inhibition at 1 µM was 95.8%.
Consider `COc1c(NC(=O)c2ccc(C)c(Oc3ccnc(CN4CCN(C)CC4)n3)c2)cc(C(C)(C)C)cc1NS(C)(=O)=O` [8(6), N-(5-tert-butyl-3-methanesulphonylamino-2-methoxy-phenyl)-4-methyl-3-[2-(4-methyl-piperazin-1-ylmethyl)-pyrimidin-4-yloxy]-benzamide], for which the inhibition at 1 µM amounted to 98.7%.

For the origin of these results see patent US8946438B2, “Benzamides, production thereof, and use thereof as medicaments” (Boehringer Ingelheim International GmbH, priority 2008, dated 2015).
